Test results: PubChem BioAssay (NCI)
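Cultured in 96-well plates, cells were exposed to test compound for 48 hours across five concentrations. TGI is the concentration that stops growth completely.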

Tests used:
Assay in all cases: NCI-60 cell line screen, 48 h
A498 renal = tested on: A498 renal
ACHN renal = tested on: ACHN renal
OVCAR-8 ovarian = tested on: OVCAR-8 ovarian
SF-268 CNS = tested on: SF-268 CNS
SK-MEL-2 melanoma = tested on: SK-MEL-2 melanoma
SN12C renal = tested on: SN12C renal
TK-10 renal = tested on: TK-10 renal
U251 CNS = tested on: U251 CNS
UACC-62 melanoma = tested on: UACC-62 melanoma
OVCAR-4 ovarian = tested on: OVCAR-4 ovarian

SMILES	TGI (A498 renal) [µM]	TGI (ACHN renal) [µM]	TGI (OVCAR-8 ovarian) [µM]	TGI (SF-268 CNS) [µM]	TGI (SK-MEL-2 melanoma) [µM]	TGI (SN12C renal) [µM]	TGI (TK-10 renal) [µM]	TGI (U251 CNS) [µM]	TGI (UACC-62 melanoma) [µM]	TGI (OVCAR-4 ovarian) [µM]
CN=C(SC)N(C)c1nc(=[N+](C)C)ss1	> 100	> 100	> 100	> 100	> 100	> 100	> 100	> 100	> 100	–
N#C/C(=C/NC(N)=S)C(N)=O	> 100	> 100	> 100	> 100	> 100	> 100	> 100	> 100	–	> 100
Clc1ccc(-c2cc3nc4ccccc4nc3o2)cc1	> 100	> 100	> 100	> 100	> 100	–	> 100	> 100	> 100	> 100
CC(C)OC(=O)/C=C/C(=O)O/C=C/[N+](=O)[O-]	40.4	> 100	> 100	68.7	46.4	–	> 100	> 100	84.7	> 100
CCOc1ncn(-c2ccc(NC(=S)NC3OC(CO)C(O)C(O)C3O)cc2)n1 (centres undefined)	–	–	> 100	> 100	–	> 100	> 100	> 100	> 100	> 100
O=C(c1cccs1)N1CCc2ccccc2C1	> 100	> 100	–	> 100	> 100	> 100	> 100	> 100	> 100	–
CCOC(=O)Cc1nc2cc(F)c(F)cc2[nH]c1=O	–	> 100	> 100	> 100	> 100	> 100	> 100	> 100	> 100	> 100
O=C(/C=C/c1ccc2ccccc2c1)NCc1ccc(C(=O)NCCc2ccccc2)cc1	> 100	> 100	> 100	> 100	> 100	> 100	–	> 100	> 100	> 100
CCc1cc(Cc2cc(CC)c(NC(=O)C(=O)CC(=O)c3sc(-c4cccnc4)nc3C)c(CC)c2)cc(CC)c1NC(=O)C(=O)CC(=O)c1sc(-c2cccnc2)nc1C	> 100	> 100	> 100	> 100	> 100	> 100	–	> 100	> 100	> 100
c1ccc(CNc2nncc3[nH]cnc23)cc1	> 100	> 100	> 100	–	> 100	> 100	> 100	> 100	> 100	> 100
COc1cc(-c2nc3ccccn3c2/N=C/c2cc(Br)cc(Br)c2O)ccc1O	–	> 100	61.8	39.7	42.2	40.6	67.8	31.9	72.4	61.3
CCO/C=N\C1=C(C#N)SC2=N/C(=C\c3ccc(OC)cc3)C(=O)N21	> 100	> 100	> 100	> 100	–	> 100	> 100	> 100	–	65.6
COCc1nc2c(OC)c(-c3nc4nc(N5CCN(C)CC5)ccc4[nH]3)cc(OC)c2n1C	–	57.4	> 100	> 100	41.9	> 100	–	61.9	41.1	> 100
CC(=O)[C@@H](C)C(=O)N1C(=O)OC[C@@]12[C@@H]1CC[C@@H](C1)C2(C)C	> 100	> 100	> 100	–	> 100	> 100	> 100	> 100	> 100	> 100
O=C1CC(c2cccc([N+](=O)[O-])c2)C2(C(=O)NC(=O)NC2=O)C(c2cccc([N+](=O)[O-])c2)C1 (centres undefined)	> 100	> 100	> 100	84.1	> 100	> 100	–	> 100	> 100	> 100
CSc1nnc(SC)nn1	> 100	30.5	35.9	29.4	–	39.7	25.8	41.8	34	32.5
Nc1ccc(Cc2c(N)[nH]c(=O)[nH]c2=O)cc1	> 100	> 100	> 100	> 100	> 100	> 100	–	> 100	> 100	> 100
CO/C=C(/C(=O)OC)c1ccccc1COc1cccc(C(F)(F)F)c1	68.6	> 100	> 100	> 100	34.2	> 100	–	> 100	42	> 100
O=C1NC(=S)NC(=O)C1C(c1ccc(O)cc1)C1C(=O)NC(=S)NC1=O	> 100	> 100	> 100	–	> 100	> 100	> 100	> 100	> 100	> 100
O=C(Nc1nnc(-c2ccc(Cl)cc2)o1)C(SC(=S)N1CCOCC1)c1ccccc1 (centres undefined)	56.5	83.5	> 100	–	44.7	42.7	> 100	77.2	–	> 100
CC(C)=C[C@H]1CCC2(OCCO2)[C@]1(C)CO	> 100	> 100	> 100	> 100	> 100	> 100	> 100	–	–	> 100
CC(=O)Oc1ccc2cc(-c3ccccc3OC(C)=O)c(=O)oc2c1	> 100	> 100	> 100	> 100	> 100	> 100	–	> 100	–	> 100
CC1(C)C[C@@H]2C1CCC1(C)CC2(O)CC[C@H]1O (some centres undefined)	–	> 100	> 100	> 100	> 100	> 100	> 100	> 100	> 100	> 100
